Legend:
[1] = biological target: Human CYP2C9 (Homo sapiens, UniProt P11712); experiment: Herbicide metabolism by human P450 molecular species (microsomal fraction); assay type: in vitro ADME
[2] = biological target: T1, Human CYP1A1 (Homo sapiens, UniProt P04798); experiment: Metabolism of herbicides in microsomes of recombinant yeast expressing human P450; assay type: in vitro ADME
T1 construct: purchased Sumitomo Chemical; host or cells: recombinant yeast, microsomal fraction
T1 sequence (P04798 1-512): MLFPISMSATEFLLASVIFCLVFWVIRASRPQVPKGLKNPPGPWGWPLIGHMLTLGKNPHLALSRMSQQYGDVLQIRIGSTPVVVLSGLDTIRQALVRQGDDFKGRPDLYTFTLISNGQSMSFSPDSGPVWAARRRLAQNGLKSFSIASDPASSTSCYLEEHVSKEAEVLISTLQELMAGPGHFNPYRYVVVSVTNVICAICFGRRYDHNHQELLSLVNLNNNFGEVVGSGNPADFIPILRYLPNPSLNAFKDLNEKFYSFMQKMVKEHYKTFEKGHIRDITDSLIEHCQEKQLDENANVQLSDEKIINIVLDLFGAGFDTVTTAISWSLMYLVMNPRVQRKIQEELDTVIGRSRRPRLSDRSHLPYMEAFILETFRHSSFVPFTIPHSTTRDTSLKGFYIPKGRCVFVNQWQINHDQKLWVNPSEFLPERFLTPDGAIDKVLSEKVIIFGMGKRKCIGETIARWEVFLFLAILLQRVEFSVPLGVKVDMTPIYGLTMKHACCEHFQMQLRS

[3] = biological target: T2, Human CYP2B6 (Homo sapiens, UniProt P20813); experiment: as above
T2 sequence (P20813 1-491): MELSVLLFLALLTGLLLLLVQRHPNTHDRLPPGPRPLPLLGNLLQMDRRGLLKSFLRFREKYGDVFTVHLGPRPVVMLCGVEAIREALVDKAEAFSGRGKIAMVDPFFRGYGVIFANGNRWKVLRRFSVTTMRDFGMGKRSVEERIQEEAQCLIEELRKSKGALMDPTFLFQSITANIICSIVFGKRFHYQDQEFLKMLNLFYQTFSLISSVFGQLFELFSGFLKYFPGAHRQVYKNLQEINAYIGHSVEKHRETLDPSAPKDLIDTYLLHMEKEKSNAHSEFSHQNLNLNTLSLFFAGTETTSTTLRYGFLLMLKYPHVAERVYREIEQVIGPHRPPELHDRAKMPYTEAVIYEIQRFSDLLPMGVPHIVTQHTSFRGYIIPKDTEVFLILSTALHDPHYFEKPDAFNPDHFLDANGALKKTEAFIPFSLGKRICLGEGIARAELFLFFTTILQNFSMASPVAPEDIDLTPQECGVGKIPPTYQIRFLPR
Experimental: The reaction was carried out in a range of temperature suitable for an organism from which a p450 molecular species is derived (for example, 37° C. for human P450), by mixing with air while vigorously shaking, within a period during which an enzyme is not inactivated (for example, for 10 to 60 min).
From the height of the peak, a metabolized amount can be obtained.
To 0.1 M potassium phosphate buffer (pH 7.4), the microsomal fraction prepared from each of yeast strains respectively expressing one of 11 human P450 molecular species (obtained from Sumitomo Chemical) was added so that the amount of the p450 would be 25 pmol. Furthermore, 0.5 mM NADPH, 5 mM glucose 6 phosphate, 1 U/ml glucose 6 phosphate dehydrogenase, and 0.1 mM each of the following herbicides (those available in the market were used) were added at the final concentrations thereto to make the total volume of 100 μl. The reaction mixture was shaken at 37° C. for 60 min, and an organic solvent was added thereto for the extraction. The extract was applied to the high performance liquid chromatography, and the metabolite was measured.

[4] = test system: seeds of Nipponbare into which the gene was not introduced; experiment: Germination assay for herbicide resistance, non-introduced rice seeds; assay type: in vivo, rice (Nipponbare); settings: […] metolachlor, […] alachlor, 15 μM triflurarin; after about 4 to 7 days
[5] = test system: S1974 (human CYP2C19); experiment: Herbicide tolerance assay for transformants; assay type: in vivo, Solanum tuberosum cv. MayQueen; settings: acetochlor 20 μmol, atrazine 1.2 μmol, metolachlor 30 μmol dispersed
From the text: Then, herbicides were dispersed.

[6] = test system: leaves of potato individuals expressing three types of P450; experiment: 7-ethoxycoumarin O-deethylation activity in leaves of kanamycin-resistant individuals; assay type: in vivo, Solanum tuberosum cv. MayQueen; settings: leaves cultured with 7-ethoxycoumarin for 3 days
Experimental: Leaves of the kanamycin-resistant individuals (0.1 g) were cultured in 5 ml of a liquid medium containing 2% sucrose with 100 μl of 20 mM 7-ethoxycoumarin for 3 days. Then, the leaves were crushed in 500 μl of 0.1 M potassium phosphate buffer (pH 7.4), and chloroform was added to the supernatant and mixed. To the chloroform layer, 0.01 N NaOH/0.1 M NaCl was added, and measurement was performed at excitation wavelength of 366 nm and at emission of 452 nm with the Hitachi fluorometer. […] Each of CYP1A1-expressing individual S1965, and CYP2B6-expressing individual S1972 was selected in the same manner.

[7] = test system: non-transformed MayQueen; experiment: Assay for herbicide resistance, non-transformed potato; assay type: in vivo; parameters: key: 1: alomost dead; 2: severely inhibited growth; 3: slightly inferior growth; 4: the same growth as that when herbicide was not dispersed; settings: 14 days after dispersal
From the text: 4, the same growth as that when herbicide was not dispersed.

[8] = biological target: T3, microsomal fraction of S1974 (human CYP2C19) (Homo sapiens, UniProt P33261); experiment: 7-ethoxyresorufin O-deethylation activity using a microsomal fraction; assay type: biochemical
T3 construct: expressed in transfected cells; host or cells: transgenic potato (Solanum tuberosum cv. MayQueen) line S1974, plasmid pUHC19, microsomal fraction
T3 sequence (P33261 whole entry): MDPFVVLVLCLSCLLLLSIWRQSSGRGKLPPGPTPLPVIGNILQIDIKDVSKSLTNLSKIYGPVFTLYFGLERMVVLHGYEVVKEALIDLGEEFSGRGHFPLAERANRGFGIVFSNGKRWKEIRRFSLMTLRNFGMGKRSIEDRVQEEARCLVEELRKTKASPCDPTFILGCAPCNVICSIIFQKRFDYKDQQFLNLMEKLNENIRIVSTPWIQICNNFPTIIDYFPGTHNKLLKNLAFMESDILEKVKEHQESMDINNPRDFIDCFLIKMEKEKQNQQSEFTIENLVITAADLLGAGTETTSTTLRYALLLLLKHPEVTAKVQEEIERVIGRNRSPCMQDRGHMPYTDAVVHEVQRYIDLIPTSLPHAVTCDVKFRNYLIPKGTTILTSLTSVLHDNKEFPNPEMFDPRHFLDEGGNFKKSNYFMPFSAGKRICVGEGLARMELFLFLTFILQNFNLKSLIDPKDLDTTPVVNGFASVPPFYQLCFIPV
Experimental: (§1) A reaction was initiated by adding 7-ethoxyresorufin to the concentration of 10 μM to a reaction solution containing 0.1 M potassium phosphate buffer (pH 7.4), 3 mM NADPH, and 1 mg/ml microsomal fractions at the final concentrations. The mixture was incubated at 37° C. for 30 min, ice-cooled acetone was added thereto, and allowed to stand on ice for 10 min. The supernatant was measured using the fluorometer (excitation wavelength of 550 nm, and emission of 586 nm).
(§2) Inhibition of activity by addition of carbon monoxide and absence of NADPH indicated P450-dependency. On the other hand, an increased activity was not observed in S1972 or S1974. […] In the table, “EROD activity” of (a) indicates 7-ethoxyresorufin O-deethylase activity (pmol/min/mg of protein) and means±standard deviations in three independent experiments. In (b), the values indicate the activities in the presence of carbon monoxide. In (c), the values indicate the activities in the absence of NADPH.

[9] = biological target: T4, microsomal fraction of S1972 (human CYP2B6) (Homo sapiens, UniProt P20813); experiment: as above; assay type: biochemical
T4 construct: expressed in transfected cells; host or cells: transgenic potato (Solanum tuberosum cv. MayQueen) line S1972, plasmid pUHB6, microsomal fraction
Experimental: as §1, §2

[10] = biological target: T5, microsomal fraction of T1977 (human CYP1A1, CYP2B6, CYP2C19) (Homo sapiens, UniProt P04798); experiment: as above; assay type: biochemical
T5 construct: expressed in transfected cells; host or cells: transgenic potato (Solanum tuberosum cv. MayQueen) line T1977, plasmid pIKBAC, microsomal fraction
T5 sequence (P04798 1-512): T1 sequence (P04798 1-512)
Experimental: as §1, §2

[11] = biological target: T6, microsomal fraction of S1965 (human CYP1A1) (Homo sapiens, UniProt P04798); experiment: as above; assay type: biochemical
T6 construct: expressed in transfected cells; host or cells: transgenic potato (Solanum tuberosum cv. MayQueen) line S1965, plasmid pUHA1, microsomal fraction
T6 sequence (P04798 1-512): T1 sequence (P04798 1-512)
Experimental: as §1, §2

[12] = test system: microsomal fraction of Control plants; experiment: as above; assay type: biochemical, Solanum tuberosum cv. MayQueen
Experimental: as §1, §2

[13] = 10 μM 7-ethoxyresorufin, means±standard deviations in three independent experiments

Sequence of Human CYP2C9 (P11712 whole entry): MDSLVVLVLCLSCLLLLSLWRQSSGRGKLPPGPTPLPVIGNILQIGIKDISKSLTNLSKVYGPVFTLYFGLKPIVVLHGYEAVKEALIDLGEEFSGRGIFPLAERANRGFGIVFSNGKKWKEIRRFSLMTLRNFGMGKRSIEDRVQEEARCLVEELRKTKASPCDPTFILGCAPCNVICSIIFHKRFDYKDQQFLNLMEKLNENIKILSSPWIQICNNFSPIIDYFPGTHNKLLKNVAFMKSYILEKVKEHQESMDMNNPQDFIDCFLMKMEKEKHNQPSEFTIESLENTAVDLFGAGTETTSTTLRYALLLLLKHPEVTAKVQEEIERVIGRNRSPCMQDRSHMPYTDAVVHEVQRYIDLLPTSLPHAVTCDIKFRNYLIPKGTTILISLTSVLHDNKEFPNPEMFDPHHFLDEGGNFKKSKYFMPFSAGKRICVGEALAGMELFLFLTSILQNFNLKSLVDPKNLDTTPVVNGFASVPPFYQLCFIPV

Question: `COc1cc(OC)nc(NC(=O)NS(=O)(=O)c2c(Cl)nc3ccccn23)n1` [imazosulfuron] was tested. Which metabolic reaction confirmed [1] did it give?
Answer: The metabolic reaction confirmed was “ring hydroxylation”.

Question: How did the metabolic reaction confirmed [2] turn out when `Cc1ccc(NC(=O)N(C)C)cc1Cl` [chlorotoluron] was run?
Answer: Its metabolic reaction confirmed is “N-demethylation, ring hydroxylation”.

Question: With `CCc1cccc(CC)c1N(COC)C(=O)CCl` [alachlor] as the molecule, how does the metabolic reaction confirmed [3] read?
Answer: Its metabolic reaction confirmed is “O-deethylation, O-demethylation”.

Question: What about the Germination of seeds [4] of the same molecule?
Answer: Its Germination of seeds is “inhibited”.

Question: How did the metabolic reaction confirmed [2] turn out when `CNC(=O)N(C)c1nc2ccccc2s1` [methabenzthiazuron] was run?
Answer: Its metabolic reaction confirmed is “N-demethylation, ring hydroxylation”.

Question: With `CO/N=C(/C)c1cccc(Oc2nc(OC)cc(OC)n2)c1C(=O)OC` [pyriminobac-methyl] as the molecule, how does the metabolic reaction confirmed [2] read?
Answer: Its metabolic reaction confirmed is “hydroxylation”.

Question: Which metabolic reaction confirmed [2] does the source give for `CCNc1nc(Cl)nc(NC(C)C)n1` [atrazine] here?
Answer: Its metabolic reaction confirmed is “N-deethylation, N-deisopropylation”.

Question: What about the “resistance of the transformant to the herbicide” value [5] of the same molecule?
Answer: Its value is “strong resistance”.

Question: `CCS(=O)(=O)Oc1ccc2c(c1)C(C)(C)CO2` [benfuresate] was tested. Which metabolic reaction confirmed [3] did it give?
Answer: Its metabolic reaction confirmed is “O-deethylation, hydroxylation”.

Question: Which “7-ethoxycoumarin O-deethylation activity” value ([6]; individual T1977) does the source give for `CCOc1ccc2ccc(=O)oc2c1` [7-ethoxycoumarin] here?
Answer: The value was “higher activity than the control”.

Question: What about the “7-ethoxycoumarin O-deethylation activity” value ([6]; individual T1979) of the same molecule?
Answer: The value was “higher activity than the control”.

Question: How did the metabolic reaction confirmed [2] turn out when `CNc1cnn(-c2cccc(C(F)(F)F)c2)c(=O)c1Cl` [norflurazon] was run?
Answer: The metabolic reaction confirmed was “N-demethylation”.

Question: Which “resistance of the transformant to the herbicide” value [5] does the source give for `CCOCN(C(=O)CCl)c1c(C)cccc1CC` [acetochlor] here?
Answer: The value was “strong resistance”.

Question: What about the Resistance to herbicide ([7]; Acetochlor 5 μmol/pot) of the same molecule?
Answer: The Resistance to herbicide was 2.

Question: What about the Resistance to herbicide ([7]; Acetochlor 10 μmol/pot) of the same molecule?
Answer: The Resistance to herbicide was 2.

Question: And the Resistance to herbicide ([7]; Acetochlor 15 μmol/pot)?
Answer: Its Resistance to herbicide is 1.

Question: With `CCOc1ccc2nc3ccc(=O)cc-3oc2c1` [7-ethoxyresorufin] as the molecule, how does the “increased 7-ethoxyresorufin O-deethylation activity” value [8] read?
Answer: Its value is “not observed”.

Question: And the EROD activity [8, 13]?
Answer: The EROD activity was 0.14 ± 0.03 pmol/min/mg of protein.

Question: And the “increased 7-ethoxyresorufin O-deethylation activity” value [9]?
Answer: Its value is “not observed”.

Question: What about the EROD activity [9, 13] of the same molecule?
Answer: The EROD activity was 0.12 ± 0.03 pmol/min/mg of protein.

Question: What about the “7-ethoxyresorufin O-deethylation activity, times higher than the controls” value [10] of the same molecule?
Answer: The value was “about 27 times”.

Question: What about the “-NADPH (Inhibition rate)” value [10] of the same molecule?
Answer: Its value is 99%.

Question: And the “CO (Inhibition rate)” value [10]?
Answer: Its value is 76%.

Question: And the EROD activity [10, 13]?
Answer: The EROD activity was 2.92 ± 0.72 pmol/min/mg of protein.

Question: And the “EROD activity in the absence of NADPH” value ([10]; -NADPH)?
Answer: The value was 0.02 pmol/min/mg of protein.

Question: And the “EROD activity in the presence of carbon monoxide” value (“EROD activity in the presence” below) ([10]; CO)?
Answer: The value was 0.69 pmol/min/mg of protein.

Question: And the “7-ethoxyresorufin O-deethylation activity, times higher than the controls” value [11]?
Answer: The value was about 53 times.

Question: And the “-NADPH (Inhibition rate)” value [11]?
Answer: The value was 99%.

Question: And the “CO (Inhibition rate)” value [11]?
Answer: Its value is 77%.

Question: What about the EROD activity [11, 13] of the same molecule?
Answer: The EROD activity was 5.78 ± 0.51 pmol/min/mg of protein.

Question: What about the “EROD activity in the absence of NADPH” value ([11]; -NADPH) of the same molecule?
Answer: The value was 0.06 pmol/min/mg of protein.

Question: And the “EROD activity in the presence” value ([11]; CO)?
Answer: The value was 1.33 pmol/min/mg of protein.

Question: And the “-NADPH (Inhibition rate)” value [12]?
Answer: Its value is 82%.

Question: What about the “CO (Inhibition rate)” value [12] of the same molecule?
Answer: Its value is 45%.

Question: And the EROD activity [12, 13]?
Answer: The EROD activity was 0.11 ± 0.01 pmol/min/mg of protein.

Question: What about the “EROD activity in the absence of NADPH” value ([12]; -NADPH) of the same molecule?
Answer: Its value is 0.02 pmol/min/mg of protein.

Question: And the “EROD activity in the presence” value ([12]; CO)?
Answer: Its value is 0.06 pmol/min/mg of protein.

Question: What does the source list for `CCCN(CCC)c1c([N+](=O)[O-])cc(C(F)(F)F)cc1[N+](=O)[O-]` [triflurarin]?
Answer: metabolic reaction confirmed [3]: O-demethylation; Germination of seeds [4]: inhibited

Question: For `CCOC1Oc2ccc(OS(C)(=O)=O)cc2C1(C)C` (stereo not shown) [ethofumesate], which metabolic reaction confirmed [3] is on record?
Answer: Its metabolic reaction confirmed is “O-deethylation, hydroxylation”.

— US6613961B1, “Plants capable of metabolizing drugs and use thereof” (priority 1998, dated 2003)
